Patent US20020147158A1, “Composition and method for preventing and treating sinusoidal obstruction syndrome and radiation-induced liver disease” (University of Southern California, priority 2001, published 2002)
Entries after “also recorded” stand apart in the source; their conditions may differ.

What was measured:
[1] = test system: monocrotaline-induced hepatic venoocclusive disease; assay: monocrotaline-induced rat model of SOS (hepatic venoocclusive disease), blinded histologic scoring; type: in vivo; settings: for prevention of SOS (overall histologic score, FIG. 1): monocrotaline model
Excerpt: This FIGURE describes the effect of MMP inhibition in the in monocrotaline-induced model of SOS. Injury is rated as absent (−) or as one, two or three plus. The overall score reflects central vein (CV) endothelial damage, hemorrhage and coagulative necrosis: 2-3 points is considered mild SOS, 4-6 points is considered moderate SOS and 7-9 points is severe disease. The MMP2/MMP9 inhibitor used is 2-[(4-biphenylylsulfonyl)amino]-3-phenyl-propionic acid.
The present invention provides methods for using matrix metalloproteinase inhibitors to prevent and treat chemotherapy-induced liver disease, such as SOS and radiation-induced liver disease. These studies were done in an in vivo model of monocrotaline-induced hepatic venoocclusive disease which closely resembles the human disease.^8 Two commercially available MMP inhibitors were tested in the in vivo rat model of hepatic venoocclusive disease: doxycycline and the MMP-2/MMP-9 inhibitor, 2-[(4-biphenylsulfonyl)amino]-3-phenyl-propionic acid. Doxycycline, 15 mg/kg was given twice daily by gavage prior to onset of the disease and continued until the time of sacrifice. 2-[(4-biphenylsulfonyl)amino]-3-phenyl-propionic acid, 200 μg/hour was infused into the portal circulation until the time of sacrifice. A systematic scoring system was devised to review all the changes associated with hepatic venoocclusive disease.
The rats that were treated with the MMP inhibitors were sacrificed on day 4, which is the time-point with most severe disease in this model of hepatic venoocclusive disease when no therapeutic interventions are used. […] Both of these MMP inhibitors prevent hepatic venoocclusive disease in a dose-dependent manner, these showing that this is a class effect of MMP inhibitors and characteristic of MMP inhibition.

MMPs = settings: stated in words, no test described; cited from earlier work

| Molecule | hepatic venoocclusive disease on blinded pathology scoring ([1]; day 4, 200 μg/hour infused intraportally by osmotic minipump) | protection from liver changes at lower doses ([1]; doses lower than 15 mg/kg twice daily (doxycycline) or 200 μg/hour (BPP)) | prevention of SOS (overall histologic score, FIG. 1) ([1]; day 4, listed as 2-[(4-biphenylylsulfonyl)amino]-3-phenyl-propionic acid) | prevention of SOS (overall histologic score, FIG. 1) ([1]; day 4, listed as BPP) | inhibitory effect on MMPs (MMPs) | prevention of SOS (overall histologic score, FIG. 1) ([1]; day 4) |
| --- | --- | --- | --- | --- | --- | --- |
| O=C(O)C(Cc1ccccc1)NS(=O)(=O)c1ccc(-c2ccccc2)cc1 (centres unmarked) [2-[(4-biphenylsulfonyl)amino]-3-phenyl-propionic acid] | absence of hepatic venoocclusive disease | partial protection | completely prevented | completely inhibits SOS | – | – |
| Cc1c2c(c(O)c3c(O)cccc13)C(=O)[C@]1(O)C(=O)C(C(N)=O)=C(O)[C@@H](N(C)C)[C@@H]1C2 [anhydrotetracycline] | – | – | – | – | weak MMP inhibitors; also recorded: little inhibitory effect on MMPs | do not prevent SOS; also recorded: minimal protective effect |
| isochlorotetracycline | – | – | – | – | weak MMP inhibitors; also recorded: little inhibitory effect on MMPs | do not prevent SOS; also recorded: minimal protective effect |
